From paper PMC2828353 (Journal of inherited metabolic disease, 2008)

Target: T1, DMGDH (His6-DMGDH, mature human dimethylglycine dehydrogenase) (Homo sapiens, UniProt Q9UI17)
T1 sequence (Q9UI17 51-866): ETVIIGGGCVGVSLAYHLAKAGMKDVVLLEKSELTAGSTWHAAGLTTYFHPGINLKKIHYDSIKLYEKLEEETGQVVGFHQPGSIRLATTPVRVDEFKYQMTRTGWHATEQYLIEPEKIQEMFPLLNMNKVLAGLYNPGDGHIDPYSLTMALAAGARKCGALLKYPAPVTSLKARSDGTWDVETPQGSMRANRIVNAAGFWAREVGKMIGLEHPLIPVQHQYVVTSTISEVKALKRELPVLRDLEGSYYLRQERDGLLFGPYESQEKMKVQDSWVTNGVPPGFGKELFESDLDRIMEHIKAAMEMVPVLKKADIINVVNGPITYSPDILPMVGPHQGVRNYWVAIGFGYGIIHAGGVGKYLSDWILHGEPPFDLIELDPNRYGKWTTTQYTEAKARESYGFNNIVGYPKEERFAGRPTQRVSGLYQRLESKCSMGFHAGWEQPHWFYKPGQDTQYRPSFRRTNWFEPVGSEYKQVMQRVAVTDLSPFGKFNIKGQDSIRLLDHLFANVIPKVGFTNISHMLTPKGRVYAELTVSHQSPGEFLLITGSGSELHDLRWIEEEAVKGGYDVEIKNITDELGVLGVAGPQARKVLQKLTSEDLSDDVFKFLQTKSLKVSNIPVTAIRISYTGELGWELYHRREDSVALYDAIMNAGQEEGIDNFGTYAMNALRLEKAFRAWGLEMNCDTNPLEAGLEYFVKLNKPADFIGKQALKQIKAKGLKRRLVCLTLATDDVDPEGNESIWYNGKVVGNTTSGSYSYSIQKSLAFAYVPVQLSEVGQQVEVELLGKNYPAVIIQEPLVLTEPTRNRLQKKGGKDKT
Experiment: ferricenium reduction at […] nm
Format: biochemical
Details: dimethylglycine as substrate, Hepes pH 7.5, 25°C

Nc1nc2c(c(=O)[nH]1)N[C@@H](CNc1ccc(C(=O)N[C@@H](CCC(=O)O)C(=O)O)cc1)CN2 [tetrahydrofolate]
% decrease in Vmax at 4 μmol/L: ~ 25%
